Data set [1] deals with T1, Plasmodium falciparum Dd2-attB (parental line), asexual blood stages.
T1 construct: Dd2-attB, the isogenic parental line
Nature of the data set: microbe, parasite or virus in culture. The arrangement: replicate k of 3 (each line is one of three independent assays; the three lines of one compound and parasite line follow each other). The note with it: n = 1; for Individual replicates / Log AC50 (M): 72 h; for AC50: Plasmodium falciparum, DD2, 72 h, read-out: Individual replicates / Log AC50 (converted). In outline:
(§1)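 Only some compounds were profiled here. Each was assayed three independent times against the Dd2-attB parent and its yeast-DHODH-overexpressing derivative.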

The nature of data set [2]: in vitro. The note with it: human, HepG2 cells; n = 1.
The test system of data set [3] is T2, Plasmodium falciparum Dd2-attB-ScDHODH (transgenic line expressing yeast DHODH), asexual blood stages.
T2 construct: Dd2-attB-ScDHODH, the transgenic line that expresses yeast DHODH
Nature of the data set: organism not typed. The arrangement: replicate k of 3 (each line is one of three independent assays; the three lines of one compound and parasite line follow each other). The note with it: 72 h, n = 1. Summed up: as §1

The subject of data set [4] is Plasmodium falciparum Dd2 asexual blood stage parasites. Nature of the data set: microbe, parasite or virus in culture. The note with it: Plasmodium falciparum, DD2, Erythrocyte, 72 h; read-out: AC50. The arrangement: species or system Plasmodium falciparum Dd2 in human erythrocytes; single determination (one 11-point concentration-response curve).
Data set [5] relates to luciferase-expressing P. berghei liver stage parasites in HepG2 cells. Nature of the data set: Inhibition of liver-stage development assay (ILSDA), Method 2 (WRAIR, 96-well). The class given is cell-based, Plasmodium berghei. The note with it: for Max Resp (signal direction of the dose response): Method 2, Decrease = decreasing P. berghei viability with dose, Increase = increasing signal, Inactive = no dose response; for AC50: Plasmodium berghei, HepG2, Method 2.

Data set [6] deals with P. berghei-ANKA-GFP-LucCON liver stage parasites in HepG2-A16-CD81EGFP cells. Nature of the data set: P. berghei liver stage Pb-Luc assay, Method 1 (UCSD, 1536-well). It counts as cell-based, Plasmodium berghei. The note with it: for Max Resp (signal direction of the dose response): Decrease = decreasing P. berghei viability with dose, Increase = increasing signal, Inactive = no dose response; for activity at 1 µM / activity at 3 µM: 48 h, average of 2 wells, 1536-well plate; for activity at 1 µM: nominal 1 uM (10 mM stock), […] for 15 mM, 1.2 uM for 12 mM, 2 uM for 20 mM stock; for activity at 3 µM: nominal 3 uM (10 mM stock), 4.5 uM for 15 mM, 3.6 uM for 12 mM, 6 uM for 20 mM stock.

Data set [7] can be described thus: in vitro. The note with it: human, HepG2-A16-CD81EGFP cells, uninfected.
In a further data set the test system is HepG2-A16-CD81EGFP cells. The note with it: average of 2 wells, repeat 2.
Where [8] appears, read: Hill fit, 50% of maximum activity response, read-out: AC50.
Where [9] appears, read: log10 of molar AC50 from Hill fit, read-out: Log AC50 (converted).
Setting [10] is: Plasmodium berghei, Method 1, Hill fit, 50% of maximum activity response, read-out: AC50.
Where [11] appears, read: Plasmodium berghei, Method 1, log10 of molar AC50 from Hill fit, read-out: Log AC50 (converted).

Values joined by “and” are separate entries in the source; they are usually repeats but may differ in a detail not shown here. Equal values may be shown once. Read-outs that look alike come from different tables or passages of the source.

With `Oc1c(CN2CCCC2)cc(COCc2ccccc2)c2cccnc12` [NCGC00183371-01], the “Individual replicates / Log AC50 (M)” value in data set [1] was -5.2986 Log AC50 (M) and -5.1986 Log AC50 (M); in data set [3], -4.7986 Log AC50 (M) and -5.1486 Log AC50 (M). For the same compound, the AC50 was 3.99 µM in data set [1] and 6.68 µM in data set [4]. The CC50 – broadly, the concentration giving 50% cytotoxicity – at 48 h in “in vitro [2]” stood at 8.62 µM.

For `CN(C)C1CCN(Cc2cc(COCc3ccccc3)c3cccnc3c2O)C1` (stereo not drawn) [NCGC00183372-01], in data set [1], the “Individual replicates / Log AC50 (M)” value was -5.2486 Log AC50 (M) and -5.1486 Log AC50 (M); the AC50 was 5.03 µM. The same compound registered a half-maximal cytotoxic concentration (CC50) at 48 h in “in vitro [2]” of 21.7 µM. Also, the “Individual replicates / Log AC50 (M)” value in data set [3] was -5.2986 Log AC50 (M) and -5.1986 Log AC50 (M) and -4.7986 Log AC50 (M).

On to `O=C(Nc1ccc(Br)cc1)c1ccc(F)c([S+](=O)([O-])NC2CCCCCC2)c1` [NCGC00139407-01], for which the “Max Resp (signal direction of the dose response)” value (from here on “Max Resp”) in data set [5] and in data set [6] (Method 1) was “Decrease” each time. Moreover, the AC50 was 0.631 µM in data set [5] (setting [8]); 0.631 µM in data set [5] (setting [9]); 1.12 µM in data set [6] (Method 1, Hill fit, 50% of maximum activity response, read-out: AC50); 0.562 µM in data set [6] (setting [10]); 0.562 µM in data set [6] (setting [11]); 9.44 µM in data set [4]. In data set [6] (Method 1, log10 of molar AC50 from Hill fit), the “Log AC50 (M)” value is listed as -5.950 M. Moreover, in the data set “in vitro [2]”, the 50% cytotoxic concentration (CC50) at 48 h worked out at 13.7 µM.

In the case of `Oc1c(CN2CCCCC2)cc(COCc2ccccc2)c2cccnc12` [NCGC00052274-02], the “Individual replicates / Log AC50 (M)” value is -5.4486 Log AC50 (M) and -5.3486 Log AC50 (M) in data set [1]; -5.4986 Log AC50 (M) in data set [3]. Moreover, the AC50 in data set [1] is 5.64 µM; in data set [3] (read-out: Individual replicates / Log AC50 (converted)) it was 5.03 µM; in data set [4], 8.41 µM. In the data set “in vitro [2]”, this compound registered a half-maximal cytotoxic concentration (CC50) at 48 h of 6.85 µM.

For the compound `Oc1c(C(Nc2nccs2)c2ccc(C(F)(F)F)cc2)ccc2cccnc12` (stereo not drawn) [MLS000774842-01], the “Max Resp” value in data set [5] is reported as “Decrease”. Moreover, the AC50 in data set [5] (setting [8]) was 0.282 µM; in data set [5] (setting [9]) it was 0.282 µM; in data set [4], 5.31 µM. The CC50 at 48 h in the data set “in vitro [2]” worked out at 15.3 µM.

For `Cc1nn2c(c1-c1ccccc1-c1ccccc1)N(Cc1ccc(O)cc1)CCC2` [NCGC00420512-01], the “Max Resp” value in data set [6] (Method 1) is reported as “Decrease”. Also, the activity at 1 µM in data set [6] (Plasmodium berghei, repeat 1, read-out: Pb-Luc signal, 1 uM, repeat 1) stood at 76.6%; in data set [6] (Plasmodium berghei, repeat 2, read-out: Pb-Luc signal, 1 uM, repeat 2) it was 69.5%; in data set [6] (Plasmodium berghei, repeat 3, read-out: Pb-Luc signal, 1 uM, repeat 3) it was 95.1%. The activity at 3 µM in data set [6] (Plasmodium berghei, repeat 1, read-out: Pb-Luc signal, 3 uM, repeat 1) came out at 15.6%; in data set [6] (Plasmodium berghei, repeat 2, read-out: Pb-Luc signal, 3 uM, repeat 2), 15.8%; in data set [6] (Plasmodium berghei, repeat 3, read-out: Pb-Luc signal, 3 uM, repeat 3), 40.5%. In addition, the AC50 in data set [6] (setting [10]) was 1.58 µM; in data set [6] (setting [11]) it was 1.58 µM; in data set [4] it was 0.485 µM. In the data set “in vitro [2]”, this compound gave a CC50 at 48 h of 28 µM. The viability – broadly, a read-out of living cells in per cent, often relative to untreated cells – at 48 h, 1 µM in the data set “in vitro [7]” is 96.5%. In addition, in the data set “in vitro [7]”, the viability at 48 h, 3 µM was 112%. Further, the “HepG2 viability signal, 1 uM, repeat 2” value in the data set on HepG2-A16-CD81EGFP cells (nominal 1 uM (10 mM stock), […] for 15 mM, 1.2 uM for 12 mM, 2 uM for 20 mM stock) was determined as 99.38%. Also, in the data set on HepG2-A16-CD81EGFP cells (nominal 3 uM (10 mM stock), 4.5 uM for 15 mM, 3.6 uM for 12 mM, 6 uM for 20 mM stock), the “HepG2 viability signal, 3 uM, repeat 2” value was determined as 110.31%.

(Values after publication PMC7822874, “Chemoprotective antimalarials identified through quantitative high-throughput screening of Plasmodium blood and liver stage parasites” (Scientific Reports, 2021).)
